From US20250115597A1, “TYK2 INHIBITORS AND COMPOSITIONS AND METHODS THEREOF” (LYNK PHARMACEUTICALS CO. LTD., priority 2021, published 2025) come the findings set out here.

Read-outs that look alike come from different tables or passages of the source.

Usually IC50 stands for the concentration at which inhibition is half-maximal.

One series deals with T1, Ba/F3-TEL-JAK2 cells (Homo sapiens, UniProt O60674).
T1 construct: fused on or other part: Dimerization domain of TEL (ETV6) fused to the JAK2 kinase domain; P41212 (Transcription factor ETV6)
T1 sequence (O60674 whole entry, change not shown, the tested form may be a part): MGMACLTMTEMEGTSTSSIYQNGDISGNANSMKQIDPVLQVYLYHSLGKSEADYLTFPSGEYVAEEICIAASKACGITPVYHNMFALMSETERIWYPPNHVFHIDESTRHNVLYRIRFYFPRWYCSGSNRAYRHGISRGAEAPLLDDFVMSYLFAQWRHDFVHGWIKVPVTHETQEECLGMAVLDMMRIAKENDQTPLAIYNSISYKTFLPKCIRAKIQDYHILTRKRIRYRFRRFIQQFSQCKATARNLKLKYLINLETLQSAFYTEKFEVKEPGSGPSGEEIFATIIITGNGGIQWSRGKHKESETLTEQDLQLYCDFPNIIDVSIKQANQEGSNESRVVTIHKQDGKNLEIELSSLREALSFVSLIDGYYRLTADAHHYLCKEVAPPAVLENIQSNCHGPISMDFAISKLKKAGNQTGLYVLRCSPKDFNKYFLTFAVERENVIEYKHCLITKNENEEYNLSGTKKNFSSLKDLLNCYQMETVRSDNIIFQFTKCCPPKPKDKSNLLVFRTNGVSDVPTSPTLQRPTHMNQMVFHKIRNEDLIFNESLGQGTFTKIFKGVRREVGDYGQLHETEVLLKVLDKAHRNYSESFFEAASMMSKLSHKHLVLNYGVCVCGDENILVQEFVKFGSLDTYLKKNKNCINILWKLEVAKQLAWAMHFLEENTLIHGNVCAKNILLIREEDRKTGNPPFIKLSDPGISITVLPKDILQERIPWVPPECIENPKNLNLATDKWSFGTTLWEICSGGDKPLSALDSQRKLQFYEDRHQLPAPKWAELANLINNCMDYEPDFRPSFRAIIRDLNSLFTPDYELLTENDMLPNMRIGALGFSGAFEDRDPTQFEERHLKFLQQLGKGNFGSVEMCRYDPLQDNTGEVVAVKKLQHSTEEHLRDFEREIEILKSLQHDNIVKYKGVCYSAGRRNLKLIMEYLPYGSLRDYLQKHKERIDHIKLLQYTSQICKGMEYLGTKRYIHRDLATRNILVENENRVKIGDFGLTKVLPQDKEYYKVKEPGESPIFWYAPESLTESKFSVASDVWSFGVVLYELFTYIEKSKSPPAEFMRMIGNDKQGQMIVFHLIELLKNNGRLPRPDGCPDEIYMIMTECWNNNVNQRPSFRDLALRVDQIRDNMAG
Put plainly: Anti-proliferative assay, Ba/F3-TEL-JAK2 cells (Cell-Titer Glo). The series is classed as cell-based. As to conditions: 72 h, read-out: BaF3-TEL-JAK2 IC50. The protocol: (§1) Anti-Proliferative Assay Dimerization domain of Tel protein fused with JAK kinase domain was permanently transduced into Ba/F3 cells, whose proliferation is dependent on JAK activity in the absence of IL-3 induction. These engineered Ba/F3 cells (Ba/F3-FL-TYK2-[…], Ba/F3-TEL-TYK2 and Ba/F3-TEL-JAK2) were used to monitor JAK inhibitory activities of the compounds in the cellular. […] Cells were seeded at 2000/well of white flat bottom 96-well plates. The well containing medium only was used as background control. After 24 h growth, cells were treated with compounds. The test compounds were dissolved in DMSO to a stock concentration of 20 mM. 3-fold serially diluted compounds for 9 concentrations with top concentration of 20 μM was added into the each well. […] The cells continued to grow at 37° C. in 5% CO2 for 72 h after compound treatment. The viability was measured by cellular ATP determination using the Cell-Titer Glo luciferase reagent (Promega). The Luminescence value was recorded by a multi-label reader Envision (PerkinElmer).

The next series has as its target T2, TYK2 (Homo sapiens, UniProt P29597).
T2 construct: purchased Carna Biosciences
Kind of series: TYK2 kinase activity, microfluidic assay (Caliper EZ Reader II). The series is classed as biochemical. Particulars: TYK2 1 nM, 1 mM ATP. An outline of the steps: (§2)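 Human JAK1, JAK2 or TYK2 enzyme was used in 50 mM HEPES, 10 mM MgCl2, 2 mM DTT and 0.01% Brij35, tuned to 10% conversion of a FAM-labelled peptide. Threefold dilutions of compound (top 5 µM, 1% DMSO) were pre-incubated with enzyme for 10 min, and reactions were stopped with EDTA. Phosphorylation was read by microfluidic mobility shift, and IC50 came from percent-inhibition curves.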

Series [1] deals with T3, Ba/F3-FL-TYK2-P760L cells (Homo sapiens, UniProt P29597, P760L, cells depend on it).
T3 construct: BaF3-FL-T2P760L (nM)
T3 sequence (P29597 whole entry P760L): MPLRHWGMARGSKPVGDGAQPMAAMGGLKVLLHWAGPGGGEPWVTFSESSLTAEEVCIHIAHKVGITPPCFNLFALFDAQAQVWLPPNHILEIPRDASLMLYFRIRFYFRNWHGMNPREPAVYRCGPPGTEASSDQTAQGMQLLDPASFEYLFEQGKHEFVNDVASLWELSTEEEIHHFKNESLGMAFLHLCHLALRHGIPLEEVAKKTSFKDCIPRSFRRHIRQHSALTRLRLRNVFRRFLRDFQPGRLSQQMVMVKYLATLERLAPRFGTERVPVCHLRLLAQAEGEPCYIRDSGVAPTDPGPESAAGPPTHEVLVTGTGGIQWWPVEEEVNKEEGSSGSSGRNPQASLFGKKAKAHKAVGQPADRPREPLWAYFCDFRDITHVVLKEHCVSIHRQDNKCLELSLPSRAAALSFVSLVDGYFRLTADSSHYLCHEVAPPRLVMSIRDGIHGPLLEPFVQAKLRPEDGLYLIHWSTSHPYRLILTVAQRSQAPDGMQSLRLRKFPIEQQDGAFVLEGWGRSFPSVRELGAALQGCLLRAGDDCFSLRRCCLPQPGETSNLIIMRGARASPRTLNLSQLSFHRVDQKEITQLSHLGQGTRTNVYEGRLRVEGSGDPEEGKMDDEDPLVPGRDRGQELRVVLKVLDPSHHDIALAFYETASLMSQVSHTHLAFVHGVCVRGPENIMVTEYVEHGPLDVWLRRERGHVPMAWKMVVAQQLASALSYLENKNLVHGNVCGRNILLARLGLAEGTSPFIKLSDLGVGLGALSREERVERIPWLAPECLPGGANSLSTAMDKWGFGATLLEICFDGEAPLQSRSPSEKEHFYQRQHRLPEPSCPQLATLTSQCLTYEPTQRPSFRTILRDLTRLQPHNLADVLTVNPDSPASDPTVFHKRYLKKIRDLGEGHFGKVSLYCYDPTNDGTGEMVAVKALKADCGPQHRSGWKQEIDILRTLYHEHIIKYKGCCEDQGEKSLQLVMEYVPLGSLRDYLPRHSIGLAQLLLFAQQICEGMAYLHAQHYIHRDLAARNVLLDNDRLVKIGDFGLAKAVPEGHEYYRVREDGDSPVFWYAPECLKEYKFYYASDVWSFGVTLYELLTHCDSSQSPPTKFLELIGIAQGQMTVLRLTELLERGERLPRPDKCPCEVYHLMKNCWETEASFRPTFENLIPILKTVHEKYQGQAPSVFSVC
Kind of series: Anti-proliferative assay, Ba/F3-FL-TYK2-P760L cells (Cell-Titer Glo). The format is cell-based. Particulars: 72 h, read-out: BaF3-FL-T2P760L IC50. An outline of the steps: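 Compound exposure ran 72 h at 37 °C in 5% CO2 across nine 3-fold concentrations from a 20 μM top dose, added 24 h after seeding 2000 cells/well.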

In another series the target is T4, JAK1 (Homo sapiens, UniProt P23458).
T4 construct: purchased Carna Biosciences
T4 sequence (P23458 whole entry): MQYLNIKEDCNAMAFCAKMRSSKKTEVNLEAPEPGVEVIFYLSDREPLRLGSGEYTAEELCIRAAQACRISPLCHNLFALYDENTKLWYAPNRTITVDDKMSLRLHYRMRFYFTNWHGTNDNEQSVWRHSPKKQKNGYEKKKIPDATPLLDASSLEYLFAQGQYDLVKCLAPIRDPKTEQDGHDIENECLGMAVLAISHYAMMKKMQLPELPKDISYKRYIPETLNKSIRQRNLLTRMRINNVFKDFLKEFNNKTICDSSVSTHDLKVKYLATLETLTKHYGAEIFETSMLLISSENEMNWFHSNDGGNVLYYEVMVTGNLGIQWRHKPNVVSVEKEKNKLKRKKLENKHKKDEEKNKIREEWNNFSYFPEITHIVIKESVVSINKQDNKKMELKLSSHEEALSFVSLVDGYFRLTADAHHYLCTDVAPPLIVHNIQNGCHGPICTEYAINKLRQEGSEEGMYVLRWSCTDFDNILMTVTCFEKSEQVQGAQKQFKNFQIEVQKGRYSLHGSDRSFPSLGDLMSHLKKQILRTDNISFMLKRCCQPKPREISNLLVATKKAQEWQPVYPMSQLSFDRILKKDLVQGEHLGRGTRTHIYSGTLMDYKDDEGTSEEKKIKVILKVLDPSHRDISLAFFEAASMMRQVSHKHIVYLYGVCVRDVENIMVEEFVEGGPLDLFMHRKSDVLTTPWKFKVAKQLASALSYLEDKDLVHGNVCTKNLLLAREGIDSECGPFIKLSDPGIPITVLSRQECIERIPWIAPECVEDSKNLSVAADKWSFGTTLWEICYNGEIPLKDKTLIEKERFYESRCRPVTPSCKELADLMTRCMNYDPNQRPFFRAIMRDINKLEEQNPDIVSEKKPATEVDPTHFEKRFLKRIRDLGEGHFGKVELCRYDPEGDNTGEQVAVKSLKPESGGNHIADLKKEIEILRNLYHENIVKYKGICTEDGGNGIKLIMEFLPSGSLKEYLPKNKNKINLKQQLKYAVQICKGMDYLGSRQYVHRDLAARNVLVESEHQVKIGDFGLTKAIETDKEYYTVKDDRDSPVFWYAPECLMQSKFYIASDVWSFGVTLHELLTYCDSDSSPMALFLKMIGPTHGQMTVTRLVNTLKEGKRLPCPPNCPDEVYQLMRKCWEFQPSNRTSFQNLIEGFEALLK
Put plainly: JAK1 kinase activity, microfluidic assay (Caliper EZ Reader II). The format is biochemical. Particulars: JAK1 5 nM, 1 mM ATP. The essentials: as §2

The target in another series is T5, JAK2 (Homo sapiens, UniProt O60674).
T5 construct: purchased Carna Biosciences
T5 sequence (O60674 whole entry): as the sequence (O60674 whole entry, change not shown, the tested form may be a part) above
Put plainly: JAK2 kinase activity, microfluidic assay (Caliper EZ Reader II). The format is biochemical. Particulars: JAK2 0.125 nM, 1 mM ATP. An outline of the steps: as §2

For another series, the target named is T6, Ba/F3-TEL-TYK2 cells (Homo sapiens, UniProt P29597).
T6 construct: fused on or other part: Dimerization domain of TEL (ETV6) fused to the TYK2 kinase domain; P41212 (Transcription factor ETV6)
T6 sequence (P29597 whole entry, change not shown, the tested form may be a part): as the sequence (P29597 whole entry P760L) above, with L760P counted along it
Put plainly: Anti-proliferative assay, Ba/F3-TEL-TYK2 cells (Cell-Titer Glo). The series is classed as cell-based. As to conditions: 72 h, read-out: BaF3-TEL-TYK2 IC50. The protocol: as §1

Series [2] can be described thus: Microsomal metabolic stability assay. The series is classed as in vitro ADME. As to conditions: pH 7.4, 0.5 mg/mL protein, 1 μM compound. An outline of the steps:
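Parent loss was tracked by LC/MS/MS at 0, 5, 15, 30 and 45 min, with half-life derived from the ln(% remaining)–time slope. Incubation at 37 °C, pH 7.4 phosphate/EDTA buffer: 0.5 mg/mL microsomes, 1 μM compound, NADPH-regenerated (2 mM).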

Another series has as its target T7, TYK2-JH2 domain (Homo sapiens, UniProt P29597).
T7 construct: IC50 on JH2 domain activity (nM)
Kind of series: Binding activity test for JH2 domain of TYK2 (Tb-antibody/tracer FRET). The essentials: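 FRET read-out after 60 min at 25° C plus overnight at 4° C; tracer displacement detected via Tb-labelled antibody on the JH2 domain. Dose-response used 11 points at 3-fold dilution.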

Series [3] is described as follows: Plasma protein binding by equilibrium dialysis. Particulars: human plasma, equilibrium dialysis 5 hours at 37° C.; read-out: % Bound (human) (converted). The format is in vitro ADME. The essentials: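 Compound spiked into plasma at 0.2 and 2 μM was dialyzed against PBS for 5 h at 37° C with shaking, in duplicate. Plasma and buffer chambers were matrix-matched, protein-precipitated and analysed by LC-MS/MS to derive % unbound, % bound and % recovery.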
In general terms: Equilibrium dialysis compares concentrations on both sides of a semipermeable membrane.

Where [4] appears, read: dog liver microsomes, read-out: Dog LM Clint.
Where [5] appears, read: dog liver microsomes, read-out: Dog LM T½.
The mark [6] stands for this setting: human liver microsomes, read-out: Human LM Clint.
The mark [7] stands for this setting: human liver microsomes, read-out: Human LM T½.
Setting [8] is: rat liver microsomes, read-out: Rat LM Clint.
[9] abbreviates: rat liver microsomes, read-out: Rat LM T½.

T2 sequence (P29597 whole entry): as the sequence (P29597 whole entry P760L) above, with L760P counted along it
T7 sequence (P29597 589-875 limits assumed): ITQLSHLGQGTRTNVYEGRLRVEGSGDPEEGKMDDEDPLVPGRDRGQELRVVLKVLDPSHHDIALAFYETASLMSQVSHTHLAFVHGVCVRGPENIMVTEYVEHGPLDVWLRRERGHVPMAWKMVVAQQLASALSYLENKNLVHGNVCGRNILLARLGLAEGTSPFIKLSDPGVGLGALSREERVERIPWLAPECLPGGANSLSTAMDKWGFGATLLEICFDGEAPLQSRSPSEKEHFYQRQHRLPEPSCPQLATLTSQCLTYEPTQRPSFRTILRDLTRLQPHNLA

`CCn1ccc2scc(Nc3cc(Nc4ccc(F)cn4)ncc3C(=O)NC)c2c1=O` [Example 18, 4-((5-Ethyl-4-oxo-4,5-dihydrothieno[3,2-c]pyridin-3-yl)amino)-6-((5-fluoropyridin-2-yl)amino)-N-methylnicotinamide]: the GI50 on Ba/F3-TEL-JAK2 cells was above 20 µM; in [1], 0.0484 µM; on Ba/F3-TEL-TYK2 cells, above 20 µM. The IC50 at TYK2, against JAK1 and on JAK2 was above 5 µM throughout.
In the case of `[2H]C([2H])([2H])NC(=O)c1cnc(Nc2ccc(C#N)cc2)nc1Nc1cccc(-c2ncn(C)n2)c1OC` [Example 28, 2-((4-Cyanophenyl)amino)-4-((2-methoxy-3-(1-methyl-1H-1,2,4-triazol-3-yl)phenyl)amino)-N-(methyl-d3) pyrimidine-5-carboxamide], the GI50 on Ba/F3-TEL-JAK2 cells is above 20 µM; in series [1] it was 0.065 µM; at Ba/F3-TEL-TYK2 cells it was above 20 µM. Besides, the figures for the microsomal CLint at 1 μM in series [2] (setting [4]), in series [2] (setting [6]) and in series [2] (setting [8]) were 4.77 µL/min/mg, 2.46 µL/min/mg and 14.3 µL/min/mg, respectively. For the same compound, the half-life at 1 μM is 4.84 h in series [2] (setting [5]), 9.39 h in series [2] (setting [7]) and 1.61 h in series [2] (setting [9]).
Turning to `CNC(=O)c1nnc2cc1Nc1cc(cc(-c3ncn(C)n3)c1OC)COCc1cccc(n1)N2` [Example 35, 10-Methoxy-N-methyl-11-(1-methyl-1H-1,2,4-triazol-3-yl)-15-oxa-2,4,5,8,21-pentaazatetracyclo[15.3.1.1^{3,7}.1^{9,13}]tricosa-1(21),3,5,7(23),9(22),10,12,17,19-nonaene-6-carboxamide], the GI50 is 0.789 µM at Ba/F3-TEL-JAK2 cells, 0.0482 µM in series [1] and above 20 µM at Ba/F3-TEL-TYK2 cells. Also, the microsomal CLint at 1 μM in [2] (setting [4]) was below 18.6 µL/min/mg; in series [2] (setting [6]), 21.2 µL/min/mg; in series [2] (setting [8]) it was 63.8 µL/min/mg. The half-life at 1 μM in series [2] (setting [5]) was above 3.1 h; in series [2] (setting [7]) it was 2.72 h; in [2] (setting [9]) it was 0.905 h. The IC50 at TYK2, on JAK1 and against JAK2 was above 5 µM throughout.
Turning to `CCC(=O)c1cnc(Nc2ccc(F)cc2)nc1Nc1cccc(-c2ncn(C)n2)c1OC` [Example 8, 1-(2-((4-Fluorophenyl)amino)-4-((2-methoxy-3-(1-methyl-1H-1,2,4-triazol-3-yl)phenyl)amino)pyrimidin-5-yl)propan-1-one], the GI50 at Ba/F3-TEL-JAK2 cells is 7.47 µM; in [1], 0.157 µM; on Ba/F3-TEL-TYK2 cells, above 20 µM.
Take `CCn1ccc2c(c(Nc3cc(Nc4ccc(F)cn4)ncc3C(=O)NC)cn2C)c1=O` [Example 10, 4-((5-Ethyl-1-methyl-4-oxo-4,5-dihydro-1H-pyrrolo[3,2-c]pyridin-3-yl)amino)-6-((5-fluoropyridin-2-yl)amino)-N-methylnicotinamide]: the GI50 at Ba/F3-TEL-JAK2 cells amounted to 3.73 µM; in series [1], 0.0545 µM; at Ba/F3-TEL-TYK2 cells it was 4.03 µM. The microsomal CLint at 1 μM in series [2] (setting [4]) was 27.1 µL/min/mg; in series [2] (setting [6]), 88.3 µL/min/mg; in [2] (setting [8]), 137 µL/min/mg. The figures for the half-life at 1 μM in [2] (setting [5]), in series [2] (setting [7]) and in series [2] (setting [9]) were 2.13 h, 0.654 h and 0.422 h, respectively. For the same compound, the IC50 against TYK2, on JAK1 and at JAK2 was above 5 µM in each case.
As for `CNC(=O)c1cnc(Nc2ccc(F)cn2)cc1Nc1csc2ccn(C)c(=O)c12` [Example 15, 6-((5-Fluoropyridin-2-yl)amino)-N-methyl-4-((5-methyl-4-oxo-4,5-dihydrothieno[3,2-c]pyridin-3-yl)amino)nicotinamide], the GI50 on Ba/F3-TEL-JAK2 cells was above 20 µM; in series [1] it was 0.0236 µM; at Ba/F3-TEL-TYK2 cells it was above 20 µM.
As to `[2H]C([2H])([2H])NC(=O)c1cnc(Nc2ccc(F)cc2)nc1Nc1cccc(-c2ncn(C)n2)c1OC` [Example 20, 2-(4-Fluoroanilino)-4-[2-methoxy-3-(1-methyl-1,2,4-triazol-3-yl)anilino]-N-(trideuteriomethyl)pyrimidine-5-carboxamide], the GI50 at Ba/F3-TEL-JAK2 cells came to 1.18 µM; in series [1], 0.078 µM; at Ba/F3-TEL-TYK2 cells, 2.53 µM. In addition, the microsomal CLint at 1 μM worked out at 101 µL/min/mg in [2] (setting [4]), 13.3 µL/min/mg in series [2] (setting [6]) and 45.7 µL/min/mg in series [2] (setting [8]). The values for the half-life at 1 μM in series [2] (setting [5]), in series [2] (setting [7]) and in [2] (setting [9]) were 0.572 h, 4.36 h and 1.26 h, respectively. Moreover, the IC50 at TYK2 is above 5 µM; against JAK1, above 5 µM; against JAK2, 0.173 µM.
In the case of `CNC(=O)c1cnc2cc1Nc1cc(cc(-c3ncn(C)n3)c1OC)COCc1cccc(n1)N2` [Example 34, 10-Methoxy-N-methyl-11-(1-methyl-1,2,4-triazol-3-yl)-15-oxa-2,4,8,21-tetrazatetracyclo[15.3.1.13,7.19,13]tricosa-1(21),3(23),4,6,9,11,13(22),17,19-nonaene-6-carboxamide], the GI50 on Ba/F3-TEL-JAK2 cells worked out at 4.35 µM; in series [1], 0.125 µM; at Ba/F3-TEL-TYK2 cells, 7.18 µM.
Consider `[2H]C([2H])([2H])NC(=O)c1cnc(Nc2cccc(C#N)c2)nc1Nc1cccc(-c2ncn(C)n2)c1OC` [Example 19, 2-(3-Cyanoanilino)-4-[2-methoxy-3-(1-methyl-1,2,4-triazol-3-yl)anilino]-N-(trideuteriomethyl)pyrimidine-5-carboxamide], for which the GI50 at Ba/F3-TEL-JAK2 cells is 4.96 µM; in series [1], 0.0349 µM; at Ba/F3-TEL-TYK2 cells, above 20 µM. In addition, the figures for the microsomal CLint at 1 μM in [2] (setting [4]), in series [2] (setting [6]) and in series [2] (setting [8]) were 71.2 µL/min/mg, 4.46 µL/min/mg and 43.6 µL/min/mg, respectively. The half-life at 1 μM in [2] (setting [5]) was found to be 0.812 h; in series [2] (setting [7]), 12.9 h; in series [2] (setting [9]), 1.32 h. Moreover, the IC50 at TYK2-JH2 domain is 0.098 nM; at TYK2 it was above 5 µM; against JAK1, above 5 µM; on JAK2, above 5 µM. For the same compound, in [3], the fraction unbound at 5 h was 0.038.
For the compound `CNC(=O)c1cnc(NC(=O)C2CC2)cc1Nc1cn(C)c2c(F)cn(C)c(=O)c12` [Example 14, 6-(Cyclopropanecarboxamido)-4-((7-fluoro-1,5-dimethyl-4-oxo-4,5-dihydro-1H-pyrrolo[3,2-c]pyridin-3-yl)amino)-N-methylnicotinamide], the GI50 on Ba/F3-TEL-JAK2 cells was above 20 µM; in series [1], 0.33 µM; on Ba/F3-TEL-TYK2 cells it was above 20 µM. For the same compound, the microsomal CLint at 1 μM is 6.43 µL/min/mg in series [2] (setting [4]), 23.6 µL/min/mg in series [2] (setting [6]) and 101 µL/min/mg in [2] (setting [8]). The half-life at 1 μM in series [2] (setting [5]) came to 3.59 h; in series [2] (setting [7]), 0.98 h; in series [2] (setting [9]), 0.228 h. For the same compound, the IC50 against TYK2, at JAK1 and on JAK2 was above 5 µM throughout.
